Columns and labels:
[1] = target: T1, ORP2 (Homo sapiens, UniProt Q9H1P3); test: Effect on intrinsic protein fluorescence, ORP2; details: protein 1 µM, excitation 280 nm
T1 construct: ORP2(49-480); host or cells: E. coli BL21(DE3)
T1 sequence (Q9H1P3 49-480): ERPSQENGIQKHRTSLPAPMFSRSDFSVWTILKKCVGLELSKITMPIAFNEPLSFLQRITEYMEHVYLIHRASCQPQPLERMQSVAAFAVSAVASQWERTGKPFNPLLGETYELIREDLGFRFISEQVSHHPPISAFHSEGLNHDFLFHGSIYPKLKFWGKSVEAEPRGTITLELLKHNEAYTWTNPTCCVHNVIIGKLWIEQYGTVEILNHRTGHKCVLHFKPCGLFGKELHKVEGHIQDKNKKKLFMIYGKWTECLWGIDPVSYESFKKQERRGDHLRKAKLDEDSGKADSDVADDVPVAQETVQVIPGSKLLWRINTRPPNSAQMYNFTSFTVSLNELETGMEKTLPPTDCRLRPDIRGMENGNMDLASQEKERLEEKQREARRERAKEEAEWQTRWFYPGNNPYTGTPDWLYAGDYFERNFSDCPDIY
Experimental: Effect of spirooxepinoindoles on intrinsic protein fluorescence
Figure S12: Spirooxepinoindoles 21a and 15f affect intrinsic protein fluorescence in dose-dependent fashion:
Respective proteins (1 µM) were incubated with the compounds at different doses. Proteins were excited at 280 ± 10 nm and fluorescence spectra were measured from 315 ± 20 nm to 600 ± 20 nm with a step size of 2 nm. A) STARD1 and 21a. B) ORP1 and 21a. C) ORP2 and 21a. D) ORP2 and 15f.
(1 picture or pasted object on this page, not shown here)
Superdex 75 pg (Cytiva) using an ÄKTA Explorer (Cytiva) in buffer containing 10 mM Tris -HCl, pH 8, 150 mM NaCl, 5 % glycerol and 2 mM DTT.
Fluorescence intensity and polarisation
Fluorescence intensity and polarisation (FP) experiments were performed in a buffer containing 20 mM HEPES pH 7.5, 300 mM NaCl, 0.01 %v/v Tween-20, 0.5% glycerol and 2 mM DTT in a final volume of 30 µl in black, flat-bottom, non-binding 384-well plates (Corning). All compounds were dispensed using the LabCyte Echo 550 Liquid handler. […] For competition experiments, 20 nM 22-NBD-cholesterol or 80 nM 25-NBD-cholesterol was mixed with protein and incubated with desired concentrations of screening compounds (Table S4) The fluorescence polarisation signal was measured using a Spark Cyto multimode microplate reader (Tecan) with filters set at 485 ± 20 nm for excitation and at 535 ± 20 nm for emission. […]

[2] = target: T2, STARD5 (Homo sapiens, UniProt Q9NSY2); set-up: method as in Depta et al.[43]; details: data reproduced; ref Depta et al.[43]; read-out: STARD5 Kd,app (DSF); cited from earlier work
T2 construct: STARD5(6-213); host or cells: E. coli BL21(DE3)
T2 sequence (Q9NSY2 6-213): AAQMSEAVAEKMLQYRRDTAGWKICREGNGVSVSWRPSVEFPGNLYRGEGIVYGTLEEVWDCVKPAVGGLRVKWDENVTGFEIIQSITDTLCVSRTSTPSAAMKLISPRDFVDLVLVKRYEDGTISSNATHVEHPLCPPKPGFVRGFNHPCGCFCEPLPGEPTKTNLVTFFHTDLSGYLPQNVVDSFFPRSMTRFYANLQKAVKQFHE

| Structure (SMILES) | Quenching of intrinsic fluorescence of ORP2 [1] | Kd [2] |
| --- | --- | --- |
| COc1ccc2c(c1)[C@@]13CC[C@@H]4C[C@@H](CC[C@@]41C)OC3=N2 [Compound 15f] | quenches the ORP2 protein fluorescence in a dose-dependent manner |  |
| C[C@]12CC[C@@H]3C[C@H]1CC[C@@]21C(=Nc2ccc(-c4ccccc4)cc21)O3 [Compound 21a] | dose-dependently quenches |  |
| CCN(CC)CCO[C@H]1CC[C@@]2(C)C(=CC[C@@H]3[C@@H]2CC[C@]2(C)C(=O)CC[C@@H]32)C1 [Compound U18666A, reference compound] |  | > 30 µM |

Source: article PMC11758220, “Identification of a Privileged Scaffold for Inhibition of Sterol Transport Proteins through the Synthesis and Ring Distortion of Diverse, Pseudo-Natural Products” (ACS Central Science, 2025)
